Data on 58 compounds can be found in publication PMC6792352, “Limited Chemical Structural Diversity Found to Modulate Thyroid Hormone Receptor in the Tox21 Chemical Library” (Environmental Health Perspectives, 2019).

As a reminder, the CC50 is the concentration giving 50% cytotoxicity. Low readings indicate harm at low concentration, high ones better tolerance by the cells.

The data set can be described thus: in vitro. As to conditions: rat, gh3-tre-luc cells.

Where a name gives a salt, the structure may show the parent alone. Some results are limits rather than exact numbers.

The compound `COc1ccc(N)cc1` [4-Methoxyaniline] gave a CC50 at 24 h (AC50 (uM) modified / 1000, Tox21_110001=Tox21_303039, viability, 1 nM T3 present, 24 h) of more than 100 µM. `CC[C@@]1(O)C[C@H](O[C@H]2C[C@H](N(C)C)[C@H](O[C@H]3C[C@H](O)[C@H](O[C@H]4CCC(=O)[C@H](C)O4)[C@H](C)O3)[C@H](C)O2)c2c(cc3c(c2O)C(=O)c2c(O)cccc2C3=O)[C@H]1C(=O)OC` [Aclarubicin hydrochloride]: for the setting “AC50 (uM) modified / 1000”, the 50% cytotoxic concentration (CC50) at 24 h came out at 0.114 µM. Take `O=C(O)c1cc(I)cc(I)c1I` [2,3,5-Triiodobenzoic acid]: the CC50 at 24 h (AC50 (uM) modified / 1000) was more than 100 µM. As for `CCCCCCCCCCOS(=O)(=O)O` [Sodium decyl sulfate], the CC50 at 24 h (AC50 (uM) modified / 1000) was more than 90 µM.

In the case of `CC(=O)OCC(=O)[C@@]1(O)CC[C@H]2[C@@H]3CCC4=CC(=O)C=C[C@]4(C)[C@H]3[C@@H](O)C[C@@]21C` [Prednisolone acetate], the cytotoxic concentration (CC50) at 24 h (AC50 (uM) modified / 1000) is more than 50 µM. On to `CCCCCCCCCCCO` [1-Undecanol], for which, under “AC50 (uM) modified / 1000”, the half-maximal cytotoxic concentration (CC50) at 24 h is more than 90 µM.

The compound `Cc1cccc(C)c1OCC(C)N` (centres unmarked) [Mexiletene hydrochloride] showed a CC50 at 24 h (AC50 (uM) modified / 1000) of more than 50 µM. With `CCOP(=O)(SC(C)CC)N1CCSC1=O` (centres unmarked) [Fosthiazate], the cytotoxic concentration (CC50) at 24 h (AC50 (uM) modified / 1000, Tox21_110001=Tox21_301059, viability, 1 nM T3 present, 24 h) is more than 90 µM. For the compound `CSc1cnccn1` [Pyrazinyl methyl sulfide], the CC50 at 24 h (AC50 (uM) modified / 1000) is more than 90 µM. The compound `CCCCCCO` [1-Hexanol] yielded a CC50 at 24 h (AC50 (uM) modified / 1000) of more than 90 µM. On to `CCOC(=O)C(O)(c1ccc(Cl)cc1)c1ccc(Cl)cc1` [Chlorobenzilate], for which the cytotoxic concentration (CC50) at 24 h is, setting by setting: (AC50 (uM) modified / 1000, Tox21_110001=Tox21_201753, viability, 1 nM T3 present, 24 h) 58.2 µM; (AC50 (uM) modified / 1000, Tox21_110001=Tox21_300594, viability, 1 nM T3 present, 24 h) 54.6 µM. As to `O=c1[nH]c2ccccc2n1CCCN1CCN(C(c2ccccc2)c2ccccc2)CC1` [Oxatomide], the CC50 at 24 h (AC50 (uM) modified / 1000) was 20.3 µM.

Compound `CCCCCCCCCCCCCCOS(=O)(=O)O` [Sodium myristyl sulfate] displayed a 50% cytotoxic concentration (CC50) at 24 h (AC50 (uM) modified / 1000) of 32 µM. This CC50 at 24 h lies about 1.6-fold higher than the previous one.

As for `Clc1ccc2cc3ccccc3cc2c1` [2-Chloroanthracene], the CC50 at 24 h (AC50 (uM) modified / 1000) is more than 90 µM. Same read-out and setting: with `CCCCCCCCCCCCN1CCCCCC1=O` [Laurocapram] the figure was 45.3 µM; with `Cc1nc(-c2ccc3c(c2)CCN(CCC2CCC(NC(=O)/C=C/c4ccc(F)cc4)CC2)CC3)no1` (centres unmarked) [SB413217A], 8.41 µM; with `CC(O)COC(C)(C)C` (centres unmarked) [1-tert-Butoxy-2-propanol], more than 90 µM. `CCOC(=O)[C@@H](C)Oc1ccc(Oc2nc3ccc(Cl)cc3o2)cc1` [Fenoxaprop-P-ethyl] yielded a CC50 at 24 h (AC50 (uM) modified / 1000) of more than 90 µM. `O=P(O)(O)C(O)(Cc1cnc2ccccn12)P(=O)(O)O` [Minodronic acid]: where the note is “AC50 (uM) modified / 1000”, the CC50 at 24 h was more than 50 µM. `BrCc1cccc(Oc2ccccc2)c1` [1-(Bromomethyl)-3-phenoxybenzene] gave a cytotoxic concentration (CC50) at 24 h (AC50 (uM) modified / 1000) of more than 90 µM. As for `CC(=O)OCC(=O)[C@@]1(OC(C)=O)[C@@H](C)C[C@H]2[C@@H]3C[C@H](F)C4=CC(=O)C=C[C@]4(C)[C@@]3(F)[C@@H](O)C[C@@]21C` [Diflorasone diacetate], the CC50 at 24 h (AC50 (uM) modified / 1000) is more than 50 µM. Regarding `CCCCN(CC)C(=O)SCCC` [Pebulate], where the note is “AC50 (uM) modified / 1000”, the CC50 at 24 h is more than 90 µM.

On to `O=C(CCCCCCCCc1cccnc1)N1CCC(C=C(c2ccccc2)c2ccccc2)CC1` [Ro 23-7637], for which, where the note is “AC50 (uM) modified / 1000”, it took 26.1 µM to reach half-maximal cytotoxicity (CC50 at 24 h).

Where the note is “AC50 (uM) modified / 1000”, `CC(C)CCCC(C)(C)O` [2,6-Dimethyl-2-heptanol] showed a cytotoxic concentration (CC50) at 24 h of more than 90 µM. Compound `c1ccsc1` [Thiophene] gave a CC50 at 24 h (AC50 (uM) modified / 1000) of more than 90 µM.

Regarding `CNC(=O)Oc1ccc2c(c1)[C@]1(C)CCN(C)[C@@H]1N2C` [Physostigmine], the cytotoxic concentration (CC50) at 24 h (AC50 (uM) modified / 1000) was more than 90 µM. As to `FC(F)(F)c1cccc(C2=CCN(CCc3ccc4ccccc4c3)CC2)c1` [Xaliproden hydrochloride], the half-maximal cytotoxic concentration (CC50) at 24 h (AC50 (uM) modified / 1000) was more than 50 µM. The same measure, in the same setting: with `CC(C)(CC(=O)O)C(=O)O` [2,2-Dimethylbutanedioic acid] the figure was more than 90 µM. As to `CON(C)C(=O)Nc1ccc(Cl)cc1` [Monolinuron], under “AC50 (uM) modified / 1000, Tox21_110001=Tox21_301360, viability, 1 nM T3 present, 24 h”, the 50% cytotoxic concentration (CC50) at 24 h is more than 90 µM. With `CON(C)C(=O)Nc1ccc(Br)c(Cl)c1` [Chlorbromuron], for the setting “AC50 (uM) modified / 1000, Tox21_110001=Tox21_300793, viability, 1 nM T3 present, 24 h”, the 50% cytotoxic concentration (CC50) at 24 h is more than 90 µM.

For the setting “AC50 (uM) modified / 1000”, `CCCC[N+](C)(CCCC)CCCC` [N,N-Dibutyl-N-methylbutan-1-aminium chloride] came in with a cytotoxic concentration (CC50) at 24 h of more than 90 µM. For the setting “AC50 (uM) modified / 1000”, `C=CCOc1cc(Cl)ccc1C(=O)NCCN(CC)CC` [Alloclamide] came in with a half-maximal cytotoxic concentration (CC50) at 24 h of 9.52 µM.

Compound `CC(C(=O)O)c1ccc(CC2CCCC2=O)cc1` (centres unmarked) [Loxoprofen] showed a half-maximal cytotoxic concentration (CC50) at 24 h (AC50 (uM) modified / 1000) of more than 50 µM.

Take `Oc1ncnc2[nH]ncc12` [Allopurinol]: the 50% cytotoxic concentration (CC50) at 24 h (AC50 (uM) modified / 1000) is more than 90 µM. In turn, `CCOC(=O)CCN(SN(C)C(=O)Oc1cccc2c1OC(C)(C)C2)C(C)C` [Benfuracarb] displayed a CC50 at 24 h (AC50 (uM) modified / 1000, Tox21_110001=Tox21_301582, viability, 1 nM T3 present, 24 h) of 64 µM. This counts as double-digit micromolar. As for `CC(C)(C)c1ccc(CCOc2ncnc3ccccc23)cc1` [Fenazaquin], the 50% cytotoxic concentration (CC50) at 24 h (AC50 (uM) modified / 1000) is more than 90 µM. In the case of `CC1(C)Oc2ccc(C#N)cc2[C@@H](N2CCCC2=O)[C@@H]1O` [Levcromakalim], the 50% cytotoxic concentration (CC50) at 24 h (AC50 (uM) modified / 1000) was more than 50 µM.

For `CCCC(=O)N1CCCN(c2nc(N)c3cc(OC)c(OC)cc3n2)CC1` [Bunazosin hydrochloride], for the setting “AC50 (uM) modified / 1000”, the CC50 at 24 h was more than 50 µM. On the same count and under the same terms, to `CCCCNCCCC` [N-Butyl-1-butanamine] belongs more than 90 µM; to `CC(C)COC(=O)OCN1C(=O)CN(CCN2CC(=O)N(COC(=O)OCC(C)C)C(=O)C2)CC1=O` [Sobuzoxane], more than 50 µM. For `OCC1(CO)COCOC1` [1,3-Dioxane-5,5-diyldimethanol], the CC50 at 24 h (AC50 (uM) modified / 1000) was more than 90 µM. Compound `CC(=O)N[C@H]1C(O)O[C@H](CO)[C@H](O)[C@@H]1O` (some centres unmarked) [N-Acetylgalactosamine] showed a cytotoxic concentration (CC50) at 24 h (AC50 (uM) modified / 1000) of more than 50 µM. The compound `Cc1ccc(C)c(N)c1` [2,5-Dimethylaniline] had a CC50 at 24 h (AC50 (uM) modified / 1000) of more than 90 µM.

For the compound `CCCCCCC(C)(C)S` [tert-Nonanethiol], under “AC50 (uM) modified / 1000”, the CC50 at 24 h was more than 90 µM.

In the case of `Clc1cccc(C(c2ccc3[nH]cnc3c2)n2ccnc2)c1` (centres unmarked) [Liarozole hydrochloride], the CC50 at 24 h (AC50 (uM) modified / 1000) is more than 50 µM. Same read-out and setting: to `CC(C)(c1cc(Br)c(OCC(Br)CBr)c(Br)c1)c1cc(Br)c(OCC(Br)CBr)c(Br)c1` (centres unmarked) [Tetrabromobisphenol A-bis(2,3-dibromopropyl ether)] belongs more than 50 µM; to `Cc1c(C)c([N+](=O)[O-])c(C(C)(C)C)c([N+](=O)[O-])c1C` [1-tert-Butyl-3,4,5-trimethyl-2,6-dinitrobenzene], 73.9 µM. `N[C@H](C(=O)O)[C@@H]1CC(Cl)=NO1` [Acivicin]: the cytotoxic concentration (CC50) at 24 h (AC50 (uM) modified / 1000) worked out at 3.86 µM. For the compound `O=C1c2ccccc2C(=O)c2cc(S(=O)(=O)O)ccc21` [Sodium 9,10-dioxo-9,10-dihydroanthracene-2-sulfonate], where the note is “AC50 (uM) modified / 1000”, the cytotoxic concentration (CC50) at 24 h was more than 90 µM. On to `CCN(CC)C(=O)N(CC)CC` [Tetraethylurea], for which the CC50 at 24 h (AC50 (uM) modified / 1000) was more than 90 µM. On the same count and under the same terms, with `CC(Oc1cc(Cl)c(Cl)cc1Cl)C(=O)O` (centres unmarked) [2-(2,4,5-Trichlorophenoxy)propionic acid] the figure was more than 90 µM. For `BrCC1CO1` (centres unmarked) [Epibromohydrin], the half-maximal cytotoxic concentration (CC50) at 24 h (AC50 (uM) modified / 1000, Tox21_110001=Tox21_202607, viability, 1 nM T3 present, 24 h) is more than 90 µM. Consider `CCC(=O)OCCC(C)CCC=C(C)C` (centres unmarked) [Citronellyl propionate], for which the CC50 at 24 h (AC50 (uM) modified / 1000) is more than 90 µM. Where the note is “AC50 (uM) modified / 1000”, `COc1ccc(C)cc1` [1-Methoxy-4-methylbenzene] returned a CC50 at 24 h of more than 90 µM.

For the compound `CC(Cc1ccc2c(c1)OCO2)NO` (centres unmarked) [1-(1,3-Benzodioxol-5-yl)-N-hydroxypropan-2-amine hydrochloride], where the note is “AC50 (uM) modified / 1000, Tox21_110001=Tox21_112852, viability, 1 nM T3 present, 24 h”, the 50% cytotoxic concentration (CC50) at 24 h was more than 100 µM. `C=CC=O` [Acrolein] returned a CC50 at 24 h (AC50 (uM) modified / 1000, Tox21_110001=Tox21_200984, viability, 1 nM T3 present, 24 h) of more than 90 µM.

Take `Cn1nnnc1SCC1=C(C(=O)O)N2C(=O)[C@@H](NC(=O)[C@H](OC=O)c3ccccc3)[C@H]2SC1` [Cefamandole nafate]: the CC50 at 24 h (AC50 (uM) modified / 1000) is more than 50 µM. Same read-out and setting: to `COc1ccc(C(=O)N2CCN(CC(=O)N3CCOCC3)CC2)cc1` [Molracetam] belongs more than 50 µM.
